Data on one compound can be found in patent US20100016338A1, “5-[(3,3,3-Trifluoro-2-hydroxy-1-arylpropyl)amino]-1-arylquinolin-2-ones, a Process for their Production and their Use as Anti-inflammatory Agents” (BAYER SCHERING PHARMA AKTIENGESELLSCHAFT, priority 2008, published 2010).

Structures are written as SMILES.

The test system of assay [1] is cytokine IL-8 secretion, human monocyte cell line THP-1. Description: inhibition of LPS-triggered IL-8 secretion in THP-1 cells (ELISA). Particulars: in comparison with dexamethasone as reference. The assay is classed as cell-based. How it is done:
The concentration of the cytokines was determined in the supernatant by means of commercially available ELISA kits.

Assay [2] deals with T1, glucocorticoid receptor (GR) (Homo sapiens, UniProt P04150).
T1 construct: made in house; host or cells: Sf9 insect cells infected with recombinant baculovirus; cytosol preparation
T1 sequence (P04150 1-777): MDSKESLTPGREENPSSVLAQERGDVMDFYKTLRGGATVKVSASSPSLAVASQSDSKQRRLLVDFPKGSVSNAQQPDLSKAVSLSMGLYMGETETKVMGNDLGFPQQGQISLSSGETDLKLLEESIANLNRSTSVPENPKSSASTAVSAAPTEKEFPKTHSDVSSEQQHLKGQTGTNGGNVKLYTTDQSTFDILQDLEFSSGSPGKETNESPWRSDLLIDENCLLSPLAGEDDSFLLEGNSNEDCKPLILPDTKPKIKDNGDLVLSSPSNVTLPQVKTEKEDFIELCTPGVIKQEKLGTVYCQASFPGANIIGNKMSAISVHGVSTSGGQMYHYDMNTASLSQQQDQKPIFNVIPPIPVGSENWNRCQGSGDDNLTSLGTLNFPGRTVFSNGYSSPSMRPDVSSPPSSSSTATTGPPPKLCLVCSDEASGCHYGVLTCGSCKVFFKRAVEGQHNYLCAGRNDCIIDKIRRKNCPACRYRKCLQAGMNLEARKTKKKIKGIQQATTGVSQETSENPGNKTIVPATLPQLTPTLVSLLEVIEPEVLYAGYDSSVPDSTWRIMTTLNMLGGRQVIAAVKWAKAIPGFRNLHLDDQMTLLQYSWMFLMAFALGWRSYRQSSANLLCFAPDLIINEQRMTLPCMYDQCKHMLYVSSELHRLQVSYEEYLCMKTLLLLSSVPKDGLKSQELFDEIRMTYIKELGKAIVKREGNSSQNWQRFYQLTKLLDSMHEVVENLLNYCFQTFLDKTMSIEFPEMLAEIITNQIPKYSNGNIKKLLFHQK
Description: binding to the glucocorticoid receptor (recombinant receptor, cytosol of baculovirus-infected Sf9 cells). The text has this:
The binding of the substances to the glucocorticoid receptor (GR) and other steroid hormone receptors (mineral corticoid receptor (MR), progesterone receptor (PR) and androgen receptor (AR)) is examined with the aid of recombinantly produced receptors. Cytosol preparations of Sf9 cells, which had been infected with recombinant baculoviruses, which code for the GR, are used for the binding studies.

As a reminder, the IC50 is the midpoint of a concentration-inhibition curve. Regarding `COCC(O)(C(Nc1cc(F)cc2c1ccc(=O)n2-c1ccc(F)nc1)c1ccc(OC)c(F)c1Cl)C(F)(F)F` (centres unmarked) [Example 2, 5-{[1-(2-Chloro-3-fluoro-4-methoxyphenyl)-3,3,3-trifluoro-2-hydroxy-2-(methoxymethyl)propyl]amino}-7-fluoro-1-(6-fluoropyridin-3-yl)-1H quinolin-2-one], in assay [1], the “efficacy of IL-8 inhibition” value was 107%. Moreover, the IC50 in assay [2] was found to be 6.3 nM.
